Among the data in US6716838B1, “Substituted polycyclic aryl and heteroaryl uracils as anticoagulative agents” (Pharmacia Corporation, priority 1999, dated 2004) are IC50 values, retold here.

Bounds are passed on as bounds.

Format in all cases: biochemical
For assay [1], the target named is T1, trypsin, type IX from porcine pancreas (Sus scrofa, UniProt P00761).
T1 construct: purchased Sigma, St Louis Mo. type IX; host or cells: porcine pancreas
Put plainly: Trypsin Assay. Conditions: substrate L-BAPNA, 60 min at room temperature, pH 8.0; read-out: Trypsin II IC50. The procedure:
5 ug/ml trypsin, type IX from porcine pancreas and 0.375 mM N-α-Benzoyl-L-arginine-p-nitroanilide (LBAPNA) are added to a 96-well assay plate containing either inhibitor or buffer (50 mM Tris-HCl, pH 8.0, 100 mM NaCl, 0.1% BSA). The reactions, in a final volume of 100 ul are measured immediately at 405 nm to determine background absorbance. The plate is incubated at room temperature for 60 min, at which time the rate of hydrolysis of the substrate is measured by monitoring the reaction at 405 nm for the release of p-nitroaniline. Percent inhibition of trypsin activity is calculated from OD405 nm value from the experimental and control sample.
(§1) Recombinant soluble TF, consisting of amino acids 1-219 of the mature protein sequence was expressed in E. coli and purified using a Mono Q Sepharose FPLC. Recombinant human VIIa was purchased from American Diagnostica, Greenwich Conn. and chromogenic substrate N-Methylsulfonyl-D-phe-gly-arg-p-nitroaniline was prepared by American Peptide Company, Inc., Sunnyvale, Calif. Factor Xa was obtained from Enzyme Research Laboratories, South Bend Ind., thrombin from Calbiochem, La Jolla, Calif., and trypsin and L-BAPNA from Sigma, St Louis Mo. The chromogenic substrates S-2765 and S-2238 were purchased from Chromogenix, Sweden.

For the next assay, the target named is human thrombin (Homo sapiens, UniProt P00734). The assay can be described thus: Thrombin Assay. Conditions: chromogenic substrate, 60 min at room temperature, pH 8.0; read-out: Thrombin II IC50. The procedure:
(§2) 0.28 nM human thrombin and 0.06 mM H-D-Phenylalanyl-L-pipecolyl-L-argioine-p-nitroaniline dihydrochloride are added to a 96-well assay plate containing either inhibitor or buffer (50 mM Tris-HCl, pH 8.0, 100 mM NaCl, 0.1% BSA). The reaction, in a final volume of 100 ul is measured immediately at 405 nm to determine background absorbance. The plate is incubated at room temperature for 60 min, at which time the rate of hydrolysis of the substrate is measured by monitoring the reaction at 405 nm for the release of p-nitroaniline. Percent inhibition of thrombin activity is calculated from OD405 nm value from the experimental and control sample.
as §1

The target of another assay is T2, human factor Xa (Homo sapiens, UniProt P00742).
T2 construct: leads from XII to XIIa to XIa to IXa and to the conversion of X to Xa; purchased Enzyme Research Laboratories, South Bend Ind
T2 sequence (P00742 235-488 limits assumed): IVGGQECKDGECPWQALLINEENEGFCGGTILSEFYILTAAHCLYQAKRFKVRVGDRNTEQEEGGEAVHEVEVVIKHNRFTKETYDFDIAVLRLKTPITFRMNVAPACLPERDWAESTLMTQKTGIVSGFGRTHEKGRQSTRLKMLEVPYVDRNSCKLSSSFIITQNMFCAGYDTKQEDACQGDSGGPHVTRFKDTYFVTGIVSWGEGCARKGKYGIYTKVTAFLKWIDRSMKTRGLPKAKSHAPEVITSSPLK
T2 sequence (P00742 41-179 limits assumed): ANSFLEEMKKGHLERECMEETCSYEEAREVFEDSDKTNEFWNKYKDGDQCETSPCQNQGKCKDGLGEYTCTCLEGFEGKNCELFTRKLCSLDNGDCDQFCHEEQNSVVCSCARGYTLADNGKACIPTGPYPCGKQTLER
Put plainly: Xa Assay. The settings on record: substrate S-2765, 60 min at room temperature, pH 8.0. The procedure:
as §2, with “0.3 nM” for “0.28 nM”, “human factor Xa” for “human thrombin”, “and 0.15” for “and 0.06”, “mM N-α-Benzyloxycarbonyl-D-arginyl-L-glycyl-L-arginine-p-nitroaniline-dihydrochloride (S-2765)” for “mM H-D-Phenylalanyl-L-pipecolyl-L-argioine-p-nitroaniline dihydrochloride”, “of Xa” for “of thrombin”
as §1

The target of assay [2] is T3, recombinant soluble tissue factor and recombinant human factor VIIa (Homo sapiens, UniProt P08709).
T3 construct: purchased American Diagnostica, Greenwich Conn; (factor VIIa); soluble TF made in house; host or cells: E. coli (soluble TF only)
T3 sequence (P08709 213-466 limits assumed): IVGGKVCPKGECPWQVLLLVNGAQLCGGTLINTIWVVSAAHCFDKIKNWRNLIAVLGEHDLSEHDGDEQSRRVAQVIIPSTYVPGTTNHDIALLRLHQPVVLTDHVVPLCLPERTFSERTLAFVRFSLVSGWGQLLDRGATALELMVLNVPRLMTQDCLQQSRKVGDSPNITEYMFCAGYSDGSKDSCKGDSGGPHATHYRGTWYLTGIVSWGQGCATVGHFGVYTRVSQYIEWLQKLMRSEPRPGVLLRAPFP
T3 sequence (P08709 61-212 limits assumed): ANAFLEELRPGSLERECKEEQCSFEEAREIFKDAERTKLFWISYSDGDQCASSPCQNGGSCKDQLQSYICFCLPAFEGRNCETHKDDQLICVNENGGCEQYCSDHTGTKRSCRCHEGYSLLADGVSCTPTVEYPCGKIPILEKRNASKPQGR
T3 sequence (P13726 33-251 partner limits assumed): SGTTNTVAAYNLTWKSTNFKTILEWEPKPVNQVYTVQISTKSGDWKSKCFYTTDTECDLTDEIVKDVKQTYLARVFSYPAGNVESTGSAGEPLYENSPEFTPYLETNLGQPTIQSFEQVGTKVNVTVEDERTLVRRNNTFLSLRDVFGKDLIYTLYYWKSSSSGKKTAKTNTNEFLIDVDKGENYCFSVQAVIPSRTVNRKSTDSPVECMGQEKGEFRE
The assay can be described thus: TF-VIIa Assay. Conditions: chromogenic substrate, 60 min at room temperature, pH 8.0. On the procedure:
as §2, with “In this assay 100” for “0.28”, “nM recombinant soluble tissue factor and 2 nM recombinant” for “nM”, “factor VIIa” for “thrombin and 0.06 mM H-D-Phenylalanyl-L-pipecolyl-L-argioine-p-nitroaniline dihydrochloride”, “containing 0.4 mM of the substrate, N-Methylsulfonyl-D-phe-gly-arg-p-nitroaniline and” for “containing”, “(5 mM CaCl2, 50” for “(50”, “TF-VIIa” for “thrombin”
as §1

T1 sequence (P00761 9-231): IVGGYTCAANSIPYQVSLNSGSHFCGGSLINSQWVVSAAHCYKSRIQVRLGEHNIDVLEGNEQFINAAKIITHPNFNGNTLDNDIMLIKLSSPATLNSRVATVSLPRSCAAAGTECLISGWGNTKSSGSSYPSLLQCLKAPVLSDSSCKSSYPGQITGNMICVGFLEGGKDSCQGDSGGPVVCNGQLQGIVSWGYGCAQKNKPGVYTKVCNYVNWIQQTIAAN

For orientation: IC50 means the point on the concentration scale where inhibition reaches its midpoint. Regarding `N=C(N)c1ccc(CNC(=O)Cn2c(=O)c(NS(=O)(=O)Cc3ccccc3)cn(Cc3ccccc3)c2=O)cc1` [Example 1], the IC50 was 400 nM in assay [1], 13000 nM at human thrombin, 25600 nM at human factor Xa and greater than 100000 nM in assay [2].
In the same order, the values of `N=C(N)NCCC[C@H](NC(=O)Cn1c(=O)c(NS(=O)(=O)Cc2ccccc2)cn(Cc2ccccc2)c1=O)C(=O)c1nccs1` [Example 2] are 200 nM, 300 nM, 200 nM and 12900 nM.
